# Assay results: patent publication US10722446B2, “Aqueous oral care compositions” (Colgate-Palmolive Company, priority 2011, dated 2020)
# Assay: Rheological properties (stress controlled AR2000ex rheometer, flow curve and strain sweep)
# Assay type: physicochemical
# Excerpt: The three commercial mouthwashes are a simple fluoride-rinse type mouthwash (comparative formulation 1), a polymer based high fluoride mouthwash (comparative formulation 2), and a mouthwash having a conventional polymer system different from that described in this case (mouthwash 3). The rheological properties of the formulations are quantified using a stress controlled AR2000ex rheometer (TA Instruments) and a cuette type geometry. A flow curve is generated and fit to a power law model to quantify the flow rate index, n. A strain sweep is conducted to quantify the elastic modulus, G′ and the loss modulus, G″.
# [1] = flow curve fit to a power law model
# [2] = strain sweep, cuette type geometry
smiles,measurement,setting,value
"O [Newtonian Fluid Example, Water]",k,[1],1.1 cps
same,n (flow rate index),[1],1.0
same,G′/G″,ratio of elastic to viscous components,0.09
same,G′ (elastic modulus),[2],0.02 dyn/cm2
same,G″ (loss modulus),[2],0.23 dyn/cm2
